Reference: US20150125506A1, “RETINAL PIGMENT EPITHELIAL CELLS DIFFERENTIATED FROM EMBRYONIC STEM CELLS WITH NICOTINAMIDE AND ACTIVIN A” (HADASIT MEDICAL RESEARCH SERVICES AND DEVELOPMENT LTD., priority 2007, published 2015)
One block for each molecule: values may come before it.

Experiments:
Assay type in all cases: cell-based, human
[1] = system: hESCs; test: Differentiation of hESC free-floating clusters into pigmented (RPE) cells, counted as pigmented clusters and cells; conditions: for appearance of clusters harboring pigmented cells: factor added in presence of NA; for percentage of clusters that included pigmented cells / percentage of pigmented cells from the total number of cells: NA with activin A vs NA without activin A
Experimental: Human ESC (HES1 cell line) and hESCs engineered by lentiviral vector to constitutively express eGFP [Gropp M, Itsykson P, Singer O, Ben-Hur T, Reinhartz E, Galun E, and Reubinoff B E. Stable genetic modification of human embryonic stem cells by lentiviral vectors. Molecular Therapy 7:281-7 (2003)] were cultured on human foreskin fibroblasts feeder layers in KO medium (KOM) consisting of 86% KO-DMEM (Gibco, Invitrogen, Gaithersburg, Md.), 14% KOSR (Gibco), 1 mM glutamine, 1% nonessential amino acids, 50 units/ml penicillin (Gibco), 50 μg/ml streptomycin, (Gibco) and 4 ng/ml bFGF (R&D Systems, Inc., Minneapolis, Minn.). hES cells were weekly passaged with type IV collagenase (1 mg/ml; Gibco) and plated onto a fresh feeder layer. A week before induction of differentiation, the cells were passaged by dissociation into nearly a single-cell suspension with Ca/Mg^++-free PBS supplemented with 0.05% EDTA (Biological Industries, Beit Haemek, Israel) and were re-plated on the feeders.
(§1) Six-eight days after plating the hES cells that were dissociated into single cells as above; they were removed from the feeders by treatment with type IV collagenase. The clumps were cultured for various periods up to 12 weeks in suspension within bacteriological dishes precoated with 0.1% low melting temperature agarose in KO medium (KOM) consisting of 86% KO-DMEM, 14% KOSR, 1 mM glutamine, 1% nonessential amino acids, 50 units/ml penicillin, and 50 μg/ml streptomycin, in the presence or absence of 10 mM nicotinamide (NA) (Sigma, St. Louis, Mo., USA). In some experiments the medium used was Neurobasal™ medium (Gibco) supplemented with N2 supplement (1:100) (Gibco) (NN medium), which was substituted after 1 week with DMEM/F12 (Gibco) supplemented with B27 (1:50) (Gibco).
(§2) Human ESCs were allowed to differentiate as free-floating clusters in KOM as above for up to six weeks in the presence of nicotinamide (NA) 10 mM. After the first week or 2 weeks of differentiation, cultures were supplemented with activin A 20-180 ng/ml (PeproTech Inc, Rocky Hill, N.J.), with TGFβ3 (1 ng/ml; R&D Systems Inc, Minneapolis, Minn.) with TGFβ1 (1 ng/ml-20 ng/ml; R&D Systems Inc) or with SB431542 (5 μM-50 μM, Sigma). Control cultures were supplemented with NA alone.
(§3) Human ESCs in suspension in KOM were also supplemented after one week with the bone morphogenetic protein (BMP) antagonist noggin (700 ng/ml R&D Systems Inc, Minneapolis, Minn.) in the presence and absence of NA, or during the 3rd and 4th weeks with TGFβ (20 ng/ml PeproTech Inc) in the presence of NA and allowed to differentiate up to an age of 6 weeks as free-floating clusters in suspension.

[2] = system: hESC clusters; test: RT-PCR and Real-time PCR of marker transcripts in differentiating hESC clusters; conditions: for enhancement of MiTF-A expression by NA supplementation / increase of RPE65 expression with vs without NA: 12 weeks
Experimental: as §1, §2, §3
Total RNA was extracted from hESCs grown under serum-free conditions (1 week after passage), and at sequential time points up to 8 weeks during culturing of hESC-derived clusters in the presence or absence of 10 mM nicotinamide and with or without supplementation with TGFβ-superfamily growth factors or antagonists. The RNA was isolated using TRIzol reagent (Invitrogen, http://www.invitrogen.com) or TRI-Reagent (Sigma). cDNA synthesis was carried out using Moloney murine leukemia virus reverse transcriptase (M-MLV RT) and random primers, according to the manufacturer's instructions (Promega Corporation, Madison, Wis., http://www. promega.com). Polymerase chain reaction (PCR) was carried out using standard protocols with Taq DNA Polymerase (Gibco-BRL). Amplification conditions were as follows: denaturation at 94° C. for 15 seconds, annealing at 55° C. for 30 seconds, and extension at 72° C. for 45 seconds. The number of cycles varied between 18 and 40, depending on particular mRNA abundance. Primer human sequences for identifying human gene transcripts (forward and reverse 5′-3′) and the length of the amplified products were as follows (SEQ ID NOs. 1-12):
For Real-time PCR the levels of transcripts were monitored using TaqMan primers and probes that were derived from the commercially available TaqMan® Assays-on-Demand Gene Expression Products (Applied Biosystems, Foster City, Calif.): Oct4, ID Hs01895061; Musashi, ID Hs01045894; Pax6, ID Hs00240871; Six3, ID Hs00193667; Rx1, ID Hs00429459; Chx10, ID Hs01584048; MiTF-A, ID Hs01115553; MiTF-total, ID Hs01115557; Bestrophin, ID Hs00188249; RPE65, ID Hs00165642; Sox10, ID Hs00366918; Crx, ID Hs00230899. Quantitative PCR analysis was performed using an ABI Prism 7000HT and ABI Prism 7900HT Sequence Detection Systems and TaqMan® Universal PCR Master Mix (Applied Biosystems) according to the manufacturer's protocol. Housekeeping gene β-glucuronidase (GusB, assay ID Hs99999908) was selected as an internal reference for normalization in the Real-Time RT-PCR quantification analysis and the relative expression level of each gene is shown as a relative value when the expression level of day 0 (or untreated cells) was set at 1. Amplification reactions were carried out in duplicates or triplicates according to manufacturer's protocol (Applied Biosystems).

[3] = system: hESC-derived clusters; test: Flow cytometry of PSA-NCAM and TRA-1-60 positive cells in hESC-derived clusters
Experimental: Flow cytometric analysis was performed to determine the number of PSA-NCAM and TRA-1-60 positive cells at different time points within the hESC-derived clusters differentiating with or without nicotinamide supplementation. The clusters were dissociated with 0.04% Trypsin/0.04% EDTA. The single cells were then stained with anti-PSA-NCAM or anti-Tra-1-60 antibodies (both from Chemicon; 1:100), detected with goat anti-mouse immunoglobulins conjugated to FITC (Dako; 1:100), and counterstained with the cell viability dye Propidium iodide (0.005 mg/ml; Sigma) Control cells were incubated only with a secondary antibody. The cell-associated immunoreactivity was analyzed with FACScalibur (Becton Dickinson Immunocytometry Systems), using CellQuest software.

[4] = system: hESC clusters; test: Indirect immunofluorescent staining of differentiated cells within clusters
Experimental: To characterize the immunophenotype of cells within the aggregates, the clusters cultivated for 2, 4, 6 or 8 weeks were gently dissociated either with 0.04% trypsin/0.04% EDTA or with Papain Dissociation System (Worthington Biochemical, Lakewood, N.J.), and the resulting small clumps and single cells were plated in KO medium supplemented with NA on poly-D-lysine (30-70 kDa, 10-20 μg/ml) alone or supplemented with either laminin (4 μg/ml) or fibronectin (10-20 μg/ml; all from Sigma, St. Louis, http://www.sigmaaldrich.com). The cells were fixed with 4% paraformaldehyde after 2 hours and examined for the expression of nestin (1:200), polysialic acid NCAM (PSA-NCAM) (1:100), Musashi (1:200; all from Chemicon, Temecula, from CA), Pax6 (DSHB, 1:100 or Chemicon, 1:250), Otx2 (Chemicon, 1:200), MiTF (Lab Vision Corporation, Fremont, Calif.; mouse IgG1, 1:50).

[5] = 8 weeks of differentiation in presence of NA
[6] = 2 weeks old clusters, RT-PCR, with vs without NA
[7] = 6 weeks of differentiation, KOM, with vs without NA, Real-time RT-PCR
[8] = at 4 weeks, NA-treated clusters
[9] = Q-PCR time course, 2 weeks activin A treatment with NA vs NA alone
[10] = TGFβ3 added in presence of NA, 6 weeks

Molecule: NC(=O)c1ccc(-c2nc(-c3ccc4c(c3)OCO4)c(-c3ccccn3)[nH]2)cc1 [SB431542]
- appearance of pigmented clusters ([1]; 4 weeks, added together with activin A and NA): significantly decreased

Molecule: TGFβ1: transforming growth factor-β protein subtype, member of the TGFβ superfamily
- appearance of clusters harboring pigmented cells [1]: significantly enhanced

- expression of activin receptor ACTRIB [2, 6]: high
- expression of activin receptor ACTRIIB [2, 6]: high
- expression of Crx (photoreceptor progenitor marker) ([2]; NA treatment vs no NA): increased
Molecule: NC(=O)c1cccnc1 [NA, nicotinamide]
- percentage of clusters that included pigmented cells ([1]; 4 weeks): 17.7±3.2%
- percentage of pigmented cells from the total number of cells ([1]; 4 weeks): 2.4±1.2%
- percentage of cells that were pigmented within clusters [1, 5]: 5.7±1.0%
- percentage of clusters that had pigmented areas ([1]; after 8 weeks of differentiation, KO medium with NA 10 mM): 72.9±2.5%
- increase of MiTF-A expression in presence of NA [2, 7]: nearly two-fold
- increase of RPE65 expression in presence of NA [2, 7]: ~30 fold
- augmentation of RPE65 expression ([2]; 8-week time course, NA-treated vs spontaneously differentiating clusters): > 100 folds
- enhancement of MiTF-A expression by NA supplementation ([2]; KOM): approximately 3 fold
- increase of RPE65 expression with vs without NA ([2]; KOM): approximately doubled
- expression of Chx10 ([2]; NA treatment vs no NA): increased
- expression of Rx1 transcripts ([2]; NA treatment vs no NA): increased
- expression of Six3 transcripts ([2]; NA treatment vs no NA): increased
- expression of Bestrophin transcripts ([2]; NA-treated cultures vs spontaneously differentiating hESC clusters): higher
- enhancement of MiTF-A expression by NA supplementation ([2]; NN/DMEM medium): approximately 2.5 fold
- increase of RPE65 expression with vs without NA ([2]; NN/DMEM medium): ~6 fold
- expression of Pax6 transcripts ([2]; after 2-6 weeks of differentiation, with vs without NA): significantly increased
- expression of Otx2 transcripts ([2]; after 2 weeks of differentiation, with vs without NA): significantly increased
- expression of Musashi transcripts ([2]; after 4-6 weeks of differentiation, with vs without NA): significantly increased
- expression of transcripts of the early RPE marker MiTF A ([2]; time course in presence of NA): induced after 4 weeks
- expression of Oct4 (marker of undifferentiated hESCs) ([2]; time course, with vs without NA): declined more rapidly
- expression of Sox10 (melanocyte developmental marker) ([2]; with vs without NA, M51 melanoma cell line as control): not dependent on NA supplementation
- expression of TRA-1-60 (surface marker of undifferentiated cells) ([3]; FACS time course, NA treated vs untreated): declined more rapidly
- percentage of cells expressing PSA-NCAM (FACS) ([3]; after 4 weeks of differentiation with NA): 81.4±6.3%
- percentage of cells expressing the early RPE marker MiTF [4, 5]: 5.4±1.1%
- percentage of cells expressing Musashi (immunofluorescence) [4, 8]: 71.4%
- percentage of cells expressing PSA-NCAM (immunofluorescence) [4, 8]: 74.2±4.1%
- percentage of cells expressing nestin (immunofluorescence) [4, 8]: 55.9±10.1%

Molecule: activin A
- percentage of clusters that included pigmented cells ([1]; 4 weeks): 50.7±6.5%
- percentage of pigmented cells from the total number of cells ([1]; 4 weeks): 9.9±1.4%
- concentration with optimal augmenting effect on percentage of pigmented cells and expression of Bestrophin and RPE65 ([1]; activin A studied at various concentrations, in presence of NA): 140 ng/mL
- pigmentation of clusters of pigmented cells ([1]; developed in presence of activin A and NA vs NA alone): darker
- increase of the percentage of pigmented cells in presence of activin A ([1]; in presence of NA): 5-6 folds
- expression of MiTF-A with activin A supplementation ([2]; 6 weeks, in presence of NA, vs NA alone): not affected
- increase of RPE65 expression by activin A treatment ([2]; 6 weeks, in presence of NA, vs NA alone (FIG. 4D)): over five-fold
- increase of Bestrophin expression by activin A treatment ([2]; 6 weeks, in presence of NA, vs NA alone (FIG. 4E)): over four-fold
- expression of RPE marker Bestrophin [2, 9]: significantly increased
- expression of retinal progenitor marker Chx10 [2, 9]: significantly increased
- expression of retinal progenitor marker Rx1 [2, 9]: significantly increased
- expression level of total MiTF-isoforms ([2]; at 4 weeks of differentiation, activin A with NA vs NA alone): increased
- increase of bestrophin expression in presence of activin A ([2]; in presence of NA): about 10 folds

Molecule: bFGF: basic FGF
- appearance of clusters harboring pigmented cells [1]: abolished

B1: TGFβ3: transforming growth factor-β protein subtype, member of the TGFβ superfamily (protein, UniProt P10600 301-412, looked up)
Transforming growth factor …: ALDTNYCFRNLEENCCVRPLYIDFRQDLGWKWVHEPKGYYANFCSGPCPYLRSADTTHSTVLGLYNTLNPEASASPCCVPQDLEPLTILYYVGRTPKVEQLSNMVVKSCKCS
modifications: Transforming growth factor beta-3
notes: transforming growth factor-β protein subtype, member of the TGFβ superfamily
- expression levels of RPE65 [2, 10]: but not of RPE65
- expression levels of transcripts of MiTF-A [2, 10]: significantly augmented

B2: noggin: bone morphogenetic protein (BMP) antagonist (protein, UniProt Q13253 28-232, looked up)
Noggin: QHYLHIRPAPSDNLPLVDLIEHPDPIFDPKEKDLNETLLRSLLGGHYDPGFMATSPPEDRPGGGGGAAGGAEDLAELDQLLRQRPSGAMPSEIKGLEFSEGLAQGKKQRLSKKLRRKLQMWLWSQTFCPVLYAWNDLGSRFWPRYVKVGSCFSKRSCSVPEGMVCKPSKSVHLTVLRWRCQRRGGQRCGWIPIQYPIISECKCSC
- differentiation of hESC clusters into pigmented RPE cells ([1]; noggin, absence of NA, 6 weeks): blocked
- differentiation into pigmented cells ([1]; noggin, medium also supplemented with NA, 6 weeks): blocked
- expression of MiTF-A ([2]; noggin, both presence and absence of NA, Real-Time RT-PCR): significantly reduced
